According to article PMC4373826, “Antiviral Effect of Methylated Flavonol Isorhamnetin against Influenza” (PLoS ONE, 2015):

Legend:
Atg-5, Atg-7, and LC3B = test: RT-PCR of autophagy-related genes; format: cell-based, canine; settings: 50 μM
Procedure: MDCK cells were seeded in 6-well plates and incubated overnight for 80% confluence. After the medium was removed, the cells were washed twice with PBS and infected with the virus as described in the antiviral assay section. Total RNA was isolated using Trizol (Invitrogen, Waltham, MA, USA) according to the manufacturer’s instructions. Synthesis of cDNA was performed using 5 μg of total RNA with MMLV reverse transcriptase (Promega, Madison, WI, USA). The primer sequences used in our study were as follows: HA (forward, 5′-[…]-3′;reverse,5′-[…]-TGACACT-3′); NA (forward, 5′-[…]-3′; reverse,5′-[…]-3); ATG-5 (forward, 5′-[…]-AACAG-3′; reverse, 5′-[…]-3′); ATG-7 (forward, 5′-[…]-3′; reverse, 5′-[…]-A-3′); LC3B (forward, 5′-[…]-3′; reverse, 5′-CTGG-[…]-3′); and GAPDH (forward, 5′-[…]-GGAGC-3′; reverse, 5′-[…]-3′).The expression of mRNA was normalized to that of the control housekeeping gene, GAPDH.

[1] = Cytotoxicity assay (EZ-Cytox) in MDCK cells; format: cell-based, canine; settings: dog; MDCK cells, 48 hr
Procedure: To determine the 50% cytotoxic concentration (CC50) for each of the tested flavonoid compounds, MDCK cells were seeded onto 96-well plates (NUNC, Penfield, NY, USA) at a density of 1 × 10^4 cells per well and incubated overnight for 80% confluence. MDCK cells were washed twice with PBS and the culture medium was replaced with medium containing serially diluted flavonoids (concentrations from 10μM up to 300 μM) for 48 hr at 37°C in a 5% CO2atmosphere. After the incubation period, the flavonoid-containing media was replaced with new media containing 10% EZ-Cytox (Daeil Lab Service, Seoul, South Korea), and the cells were incubated in the dark for 3 hr at 37°C in a 5% CO2 atmosphere. The optical density was measured at 480 nm using an x-Mark spectrophotometer (Bio-Rad, Hercules, CA, USA). Cytotoxicity was estimated by comparing the cell survival rate of the flavonoids-treated cells and the DMSO-treated cells with the control (virus-untreated) cells. The control cell values were arbitrarily set as the 100% survival rate. The treated cells values were normalized to the control cell values. The calculation of CC50 was carried out as described in detail in S1 Text.
The 50% cytotoxic concentration (CC50) was calculated according to the following equation:
Cytotoxicity (%) = [100-(ODt/ODs)] x100
ODt: The optical density (OD) of cells treated with the tested flavonoids.
ODs: The OD of cells treated with the control solvent (0.2 % DMSO).
After obtaining the results, we calculated the concentration that induces 50% cell death using the following equation:
(X2 - X1) X (50-Y1) / (Y2 - Y1) + X1. Where, X1 represents the lower concentration used in this experiment, while X2 represents the higher concentration. Y1 represents the mean of the percentage of the viable cells at X1 concentration. On the other hand, Y2 represents the mean of the percentage of the viable cells at X2 concentration.”

[2] = test system: virus-induced autophagic puncta / acidic vesicular organelles in MDCK cells; test: Virus-induced autophagy assay (AVO staining with AO and MDC); format: cell-based, canine; settings: 50 μM
Procedure: To examine the ability of isorhamnetin to block the formation of acidic vesicular organelles (AVOs) after influenza A virus infection, we used various vital staining methods for AVOs, as described previously. Briefly, MDCK cells were cultured on 24-well plates until 80% confluence. Cells were infected with influenza A/PR/08/34 (H1N1) virus as described previously and treated with 50 μM of isorhamnetin using the 3 aforementioned methods of flavonoid treatment (pre-treatment, co-treatment, and post-treatment methods). Cells were stained with 5 μg/mL acridine orange (AO) (Sigma-Aldrich) and 50 μM of monodansylcadaverine (MDC) (Sigma-Aldrich)for 15 min at 37°C and washed 3 times with PBS, after which the cells were examined under a fluorescence microscope (Carl Zeiss, Jena, Germany) to allow detection of autophagic puncta.

[3] = target: T1, influenza virus neuraminidase (Influenza A virus, UniProt P03468); test: Neuraminidase inhibition (NAI) assay; format: biochemical; settings: 50 μM
T1 construct: mixed with an equal volume of the virus solution (50 μL); host or cells: whole virus suspension
Procedure: The neuraminidase inhibition assay was carried out to examine the inhibitory effect of the tested flavonoids on influenza virus neuraminidase activity as described previously. The flavonoid compounds were used at concentrations of 10 μM, 50 μM, and 100 μM. Tamiflu, a specific NA blocker, was used as a control with a dose of 1 μM. This assay was conducted in 96-well plates; each flavonoid concentration (50 μL) was mixed with an equal volume of the virus solution (50 μL) using reaction buffer (sodium acetate buffer 150 mM, pH 7, and 1 mM calcium chloride) and incubated for 30 minutes at 37°C. For initiation of the enzymatic reaction, we added 100 μL of the substrate solution (4-MU-NANA; (2′-(4-methylumbelliferyl)-α-d-N-acetylneuraminic acid, sodium salt hydrate; Sigma-Aldrich) that dissolved in the enzyme buffer [33 mM 2-(N-morpholino) ethanesulfonic acid (MES), pH 6.5, and 4 mM CaCl2] to the final concentration of 100 μM to the flavonoids and the virus mixture (100 μL). This reaction mixture was protected from light and incubated at 37°C for 2 hr under shaking condition. For stopping of the reaction, we added the stop solution (150 μl of 0.014 N NaOH in 83% ethanol) to each well. The fluorescence of the released 4-methylumbelliferone fluorescence was measured using a fluorescence plate reader (Molecular Devices, Sunnyvale, CA, USA) (excitation 365 nm, emission 460 nm). […]

T1 sequence (P03468 whole entry): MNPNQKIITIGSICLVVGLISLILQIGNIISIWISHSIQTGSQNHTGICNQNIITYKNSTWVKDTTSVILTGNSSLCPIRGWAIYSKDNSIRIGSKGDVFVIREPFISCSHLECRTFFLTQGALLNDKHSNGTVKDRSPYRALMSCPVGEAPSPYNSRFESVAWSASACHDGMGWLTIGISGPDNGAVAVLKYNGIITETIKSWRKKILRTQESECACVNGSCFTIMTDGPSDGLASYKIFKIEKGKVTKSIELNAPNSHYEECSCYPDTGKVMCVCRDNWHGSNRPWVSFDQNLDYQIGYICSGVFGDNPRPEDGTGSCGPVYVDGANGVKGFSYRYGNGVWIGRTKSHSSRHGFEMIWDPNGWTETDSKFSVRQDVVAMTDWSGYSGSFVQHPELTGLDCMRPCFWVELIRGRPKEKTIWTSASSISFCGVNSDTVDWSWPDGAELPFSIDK

Question: Which “virus-induced overexpression of autophagy-related genes Atg-5, Atg-7, and LC3B” value (Atg-5, Atg-7, and LC3B) does the source give for `COc1cc(-c2oc3cc(O)cc(O)c3c(=O)c2O)ccc1O` [Isorhamnetin, isorhamnetin] here?
Answer: inhibited

Question: And the CC50 at 48 h [1]?
Answer: > 280 µM

Question: What about the “virus-induced autophagic puncta formation and AVO acidification” value ([2]; post-treatment) of the same compound?
Answer: almost completely blocked

Question: And the “virus-induced autophagic puncta formation and acidification of AVOs” value ([2]; pre-, co-, and post-treatment)?
Answer: significantly suppressed

Question: And the NA activity [3]?
Answer: significantly inhibited
